According to PMC5987162 (Biochimica et biophysica acta, 2018):
Like-named read-outs stand apart in the source and are kept apart here.

Experiments:
[1] = tested on: hippocampal transcriptome; test: RNA-Seq of hippocampus after acute THC versus vehicle; assay type: in vivo, mouse; conditions: for number of transcripts differentially expressed in the HIPP: 2 hours, 5% FDR
[2] = tested on: CD1 female mouse brain lipidome; test: Targeted brain lipidomics; assay type: in vivo; conditions: for magnitude class of change in PGE2 and PGF2α, HIPP: p < 0.05
[3] = tested on: novel object recognition; conditions: 3 mg/kg THC, 24 hours after dosing; cited from earlier work
[4] = tested on: gene expression; conditions: microarray, out of 24,500 possible genes, acute THC; cited from earlier work
[5] = tested on: spatial working memory; conditions: male C57 mice, 3 mg/kg, tested 30 minutes later; cited from earlier work
[6] = PND 50, 2 hours after 3 mg/kg THC i.p.
[7] = adult, 2 hours after 3 mg/kg THC i.p.
[8] = adult, THC vs vehicle, significant
[9] = PND 35, 2 hours after 3 mg/kg THC i.p.

## 11-OH-THC
[6]
  rank of HIPP levels relative to other brain regions: highest
[7]
  rank of HIPP levels relative to other brain regions: 5th

## CCCCCc1cc(O)c2c(c1)OC(C)(C)[C@@H]1CCC(C)=C[C@@H]21 [THC, Δ^9-tetrahydrocannabinol]
[1]; HIPP of both age groups, 3 mg/kg, larger magnitude in adult
  effect on FKBP5 message: upregulated
[1]; HIPP of mice from both age groups
  effect on Cdkn1a transcript: upregulated
[1]; HIPP, PND 35 and adult
  number of genes affected in the same direction regardless of age: 31
  number of shared transcripts significantly downregulated: 11
[1]; PND 35
  number of transcripts downregulated in the HIPP: 48
  number of transcripts upregulated in the HIPP: 41
[1]; PND 35, 3 mg/kg THC
  number of transcripts differentially expressed in the HIPP: 89
[1]; PND 35 HIPP
  log2 fold change of Plekhf1 (largest upregulation): 0.84
  log2 fold change of kdr (most robust downregulation): −0.73
  number of transcript changes unique to this age group: 58
  number of uniquely changed transcripts downregulated: 37
[1]; adult
  number of decreases in transcript expression in the HIPP: 80
  number of increases in transcript expression in the HIPP: 109
[1]; adult HIPP
  log2 fold change of Plekhf1 (largest upregulation): 1.36
  log2 fold change of cldn5 (most robust downregulation): −0.80
  number of transcript changes unique to this age group: 158
  number of unique transcript changes that were decreases: 69
  number of unique transcript changes that were increases: 89
[1]; adult and PND 35 HIPP
  effect on mRNA encoding the receptor for VEGF, Kdr: significantly lowered
[1]; adult, 3 mg/kg THC
  number of transcripts differentially expressed in the HIPP: 189
[2]; PND 35
  change in 2-AG in HYP: decrease
  change in N-oleoyl glycine in HYP: increase
  effect on AEA levels: unaffected
  number of brain areas with reduced 2-AG levels: 2
  number of decreases in lipid concentration, all 8 brain areas: 10
  number of increases in lipid concentration, all 8 brain areas: 23
  number of lipids decreased in HIPP: 1
  number of lipids increased in HIPP: 6
[2]; PND 35, 3 mg/kg i.p., 2 hours
  magnitude of change of PGE2 in the HIPP (THC mean divided by vehicle mean): 1.13
[2]; PND 35, THC vs vehicle
  magnitude class of change in PGE2 and PGF2α, HIPP: 1 up arrow
[2]; PND 35, THC vs vehicle, significant
  magnitude class of change in A-Taur, THAL: 1 up arrow
[2]; PND 35, out of 656 possible changes
  number of significant changes in lipid concentrations across all 8 brain areas: 33
[2]; PND 35 THC mice, 3 mg/kg i.p., 2 hours
  average level of PGE2 in the HIPP: 6.68×10^−10 moles per gram
[2]; PND 35 mouse
  change in levels of PGE2 and PGF2α in the HIPP: increase
[2]; PND 50
  change in AEA and its structural analogs the NAEs in STR: significantly increased
  change in PGF2α in HYP (only change in that region): increase
  number of brain regions with reduced 2-AG levels: 4
  number of brain regions with reduced AEA levels: 2
  number of decreases in lipid concentration, all 8 brain areas: 28
  number of increases in lipid concentration, all 8 brain areas: 30
  number of lipids decreased in CER: 8
  number of lipids increased in CER: 5
  number of lipids significantly modified, all 8 brain areas: 58
[2]; PND 50 mouse
  change in levels of PGE2 and PGF2α in the HIPP: no change
[2]; adult
  change in NAEs in all brain areas except the STR and CTX: significantly decreased
  change in levels of PGE2 and PGF2α in the HIPP: decrease
  number of brain regions with reduced 2-AG levels: 4
  number of brain regions with reduced AEA levels: 6
  number of changes in lipid levels in CER (all decreases): 14
  number of decreases in lipid concentration, all 8 brain regions: 99
  number of increases in lipid concentration, all 8 brain regions: 17
  number of lipids affected in STR: 3
  number of lipids altered in STEM: 28
  number of lipids changing in concentration across the 8 brain regions: 116
  number of lipids decreased in STEM: 24
  number of lipids decreased in STR: 2
  number of lipids increased in STEM: 4
  number of lipids increased in STR: 1
[2]; adult THC mice, 3 mg/kg i.p., 2 hours
  mean level of AEA in the HIPP: 4.76×10^−11 moles per gram
[2]; adult, 3 mg/kg i.p., 2 hours
  AEA in the HIPP, THC mean divided by vehicle mean: 0.87
  fold decrease of AEA in the HIPP (reciprocal of THC/vehicle): 1.15
[2]; adult, THC vs vehicle
  magnitude class of change in 2-OG, MID: 2 down arrows
  magnitude class of change in PGE2 and PGF2α, HIPP: 1 down arrow
[2]; [8]
  magnitude class of change in AEA, THAL: 1 down arrow
  magnitude class of change in SEA, THAL: 3 down arrows
[2]; adult, THC vs vehicle, trending (p < 0.1)
  magnitude class of change in A-Taur, THAL: 1 up arrow
[2]; all 3 age groups, THC vs vehicle
  magnitude class of change in 2-AG, MID: 1 down arrow
[3]
  effect on novel object recognition: impaired
[4]
  number of genes with altered expression: 28
[9]
  brain area with highest levels: HIPP
[6]
  brain area with highest levels: HIPP
[7]
  brain area with highest levels: HIPP
[5]
  effect on spatial working memory in the Morris water maze: significantly disrupted spatial working memory

## (±)-11-nor-9-carboxyTHC
[9]
  rank of HIPP levels relative to other brain regions: highest
